Reference: patent US4256731A, “Oral Compositions” (priority 1979, dated 1981)

Assay: in vitro stain assay: inhibition of alexidine dihydrochloride mediated stain on saliva-coated hydroxylapatite, 5% tannic acid as staining agent
Conditions: tested in triplicate, pH and acid:alexidine mole ratio as listed per formulation
Experimental: Methods: The substrate for the in vitro stain assay was a saliva-coated hydroxylapatite and the staining agent was 5% tannic acid. Each formulation was tested in triplicate.

Compound | % Inhibition of Alexidine . 2HCl Mediated Stain
N[C@@H](CC(=O)O)C(=O)O [Aspartic Acid] | 34%
O=C(O)CC(O)(CC(=O)O)C(=O)O [Citric Acid] | 32%
O=C(O)/C=C/C(=O)O [Fumaric Acid] | 44%
N[C@@H](CCC(=O)O)C(=O)O [Glutamic Acid] | 40%
Nc1ccc(C(=O)O)cc1 [p-Aminobenzoic Acid] | 22%
